Literature values, collected in article PMC10646941 (Chemical Science, 2023).

Target: SARS-CoV-2 3C-Like Protease

In the case of CC(C)(C)[C@H](NC(=O)C(F)(F)F)C(=O)N1C[C@H]2[C@@H]([C@H]1C(=O)N[C@H](C#N)C[C@@H]1CCNC1=O)C2(C)C [nirmatrelvir], the kinact/Ki is listed as 55 mM⁻¹ s⁻¹.
